Results published in patent US20260374754A1, “N-((ISOQUINOLIN-6-YL)METHYL)-1H-PYRAZOLE-4-CARBOXAMIDE DERIVATIVES AS PLASMA KALLIKREIN INHIBITORS FOR THE TREATMENT OF HEREDITARY ANGIODEMA” (Takeda Pharmaceutical Company Limited, priority 2022, published 2026).

biological target: human activated kallikrein enzyme (Homo sapiens, UniProt P03952); assay: Inhibition of human activated plasma kallikrein, fluorogenic PFR-AMC substrate, 500 pM enzyme format; assay type: biochemical; details: 500 pM activated kallikrein; 300 μM PFR-AMC; 30 min preincubation; 10 min room temperature; pH 7.5; read-out: Primary Dose Response Assay: Average EC50
How it was run: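 Using fluorogenic PFR-AMC at 300 μM, cleavage by 500 pM human activated kallikrein ran 10 min at room temperature, read at 460 nm emission (380 nm excitation). Enzyme and compounds were first preincubated 30 min in 20 mM Tris pH 7.5, 150 mM NaCl, 1 mM EDTA, 0.1% PEG-400, 0.1% Triton X-100.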

Sequence of human activated kallikrein enzyme (P03952 391-638 limits assumed): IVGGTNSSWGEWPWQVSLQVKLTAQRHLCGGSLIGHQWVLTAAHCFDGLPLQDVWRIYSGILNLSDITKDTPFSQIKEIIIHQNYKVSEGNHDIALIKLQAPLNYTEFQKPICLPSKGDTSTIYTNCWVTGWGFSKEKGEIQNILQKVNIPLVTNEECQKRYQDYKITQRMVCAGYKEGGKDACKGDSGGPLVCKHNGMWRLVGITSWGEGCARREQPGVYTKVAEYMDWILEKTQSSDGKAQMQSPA
Sequence of human activated kallikrein enzyme (P03952 20-390 partner limits assumed): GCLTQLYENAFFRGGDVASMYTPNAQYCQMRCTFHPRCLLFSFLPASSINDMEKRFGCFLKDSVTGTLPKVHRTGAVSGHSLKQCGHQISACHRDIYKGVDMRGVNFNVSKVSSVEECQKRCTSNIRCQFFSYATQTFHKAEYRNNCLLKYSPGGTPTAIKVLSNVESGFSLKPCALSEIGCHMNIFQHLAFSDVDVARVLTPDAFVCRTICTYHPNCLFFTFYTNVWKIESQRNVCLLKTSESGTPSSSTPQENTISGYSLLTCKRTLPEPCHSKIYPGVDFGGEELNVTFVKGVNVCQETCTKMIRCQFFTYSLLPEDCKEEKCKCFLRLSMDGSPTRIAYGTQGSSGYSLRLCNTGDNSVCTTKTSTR

Row | EC50 | Structure (SMILES)
1 | < 0.001 µM | Cc1cc2c(N)nccc2c(C)c1CNC(=O)c1cnn(Cc2cnc3c(C)cccc3c2)c1 [Example 72, N-((1-amino-5,7-dimethylisoquinolin-6-yl)methyl)-1-((8-methylquinolin-3-yl)methyl)-1H-pyrazole-4-carboxamide]
2 | 0.001 to 0.01 µM | Cc1cc2c(N)nccc2c(C)c1CNC(=O)c1cnn(Cc2cc3cccc(C)c3nc2Cl)c1 [Example 73, N-((1-amino-5,7-dimethylisoquinolin-6-yl)methyl)-1-((2-chloro-8-methylquinolin-3-yl)methyl)-1H-pyrazole-4-carboxamide]
3 | 0.001 to 0.01 µM | Cc1cc2c(N)nccc2c(C)c1CNC(=O)c1cnn(Cc2ccc3cnccc3c2)c1 [Example 74, N-((1-amino-5,7-dimethylisoquinolin-6-yl)methyl)-1-(isoquinolin-6-ylmethyl)-1H-pyrazole-4-carboxamide]
4 | 0.1 to 1 µM | Cc1cc2c(N)nccc2c(C)c1CNC(=O)c1cnn(Cc2nc3ccccc3n2C)c1 [Example 75, N-((1-amino-5,7-dimethylisoquinolin-6-yl)methyl)-1-((1-methyl-1H-benzo[d]imidazol-2-yl)methyl)-1H-pyrazole-4-carboxamide]
5 | 0.01 to 0.1 µM | Cc1cc2c(N)nccc2c(C)c1CNC(=O)c1cnn(Cc2nc3ccccc3s2)c1 [Example 76, N-((1-amino-5,7-dimethylisoquinolin-6-yl)methyl)-1-(benzo[d]thiazol-2-ylmethyl)-1H-pyrazole-4-carboxamide]
6 | 0.1 to 1 µM | Cc1cc2c(N)nccc2c(C)c1CNC(=O)c1cnn(Cc2cncnc2)c1 [Example 77, N-((1-amino-5,7-dimethylisoquinolin-6-yl)methyl)-1-(pyrimidin-5-ylmethyl)-1H-pyrazole-4-carboxamide]
7 | 0.1 to 1 µM | Cc1cc2c(N)nccc2c(C)c1CNC(=O)c1cnn(Cc2ccccn2)c1 [Example 78, N-((1-amino-5,7-dimethylisoquinolin-6-yl)methyl)-1-(pyridin-2-ylmethyl)-1H-pyrazole-4-carboxamide]
8 | 0.001 to 0.01 µM | Cc1cc2c(N)nccc2c(C)c1CNC(=O)c1cnn(Cc2ccc3nccnc3c2)c1 [Example 79, N-((1-amino-5,7-dimethylisoquinolin-6-yl)methyl)-1-(quinoxalin-6-ylmethyl)-1H-pyrazole-4-carboxamide]
9 | 0.1 to 1 µM | Cc1cc2c(N)nccc2c(C)c1CNC(=O)c1cnn(Cc2sc3ccccc3c2Cl)c1 [Example 80, N-((1-amino-5,7-dimethylisoquinolin-6-yl)methyl)-1-((3-chlorobenzo[b]thiophen-2-yl)methyl)-1H-pyrazole-4-carboxamide]
10 | 0.001 to 0.01 µM | Cc1cc2c(N)nccc2c(C)c1CNC(=O)c1cnn(Cc2cc3ccc(Cl)cc3s2)c1 [Example 81, N-((1-amino-5,7-dimethylisoquinolin-6-yl)methyl)-1-((6-chlorobenzo[b]thiophen-2-yl)methyl)-1H-pyrazole-4-carboxamide]
11 | 0.01 to 0.1 µM | Cc1cc2c(N)nccc2c(C)c1CNC(=O)c1cnn(Cc2cc3ccccc3o2)c1 [Example 82, N-((1-amino-5,7-dimethylisoquinolin-6-yl)methyl)-1-(benzofuran-2-ylmethyl)-1H-pyrazole-4-carboxamide]
12 | 0.1 to 1 µM | Cc1cc2c(N)nccc2c(C)c1CNC(=O)c1cnn(Cc2ncccn2)c1 [Example 83, N-((1-amino-5,7-dimethylisoquinolin-6-yl)methyl)-1-(pyrimidin-2-ylmethyl)-1H-pyrazole-4-carboxamide]
13 | 0.001 to 0.01 µM | Cc1cc2c(N)nccc2c(C)c1CNC(=O)c1cnn(Cc2cc3ccccc3s2)c1 [Example 84, N-((1-amino-5,7-dimethylisoquinolin-6-yl)methyl)-1-(benzo[b]thiophen-2-ylmethyl)-1H-pyrazole-4-carboxamide]
14 | 0.01 to 0.1 µM | Cc1cc2c(N)nccc2c(C)c1CNC(=O)c1cnn(Cc2nc3ccccc3o2)c1 [Example 85, N-((1-amino-5,7-dimethylisoquinolin-6-yl)methyl)-1-(benzo[d]oxazol-2-ylmethyl)-1H-pyrazole-4-carboxamide]
15 | 0.1 to 1 µM | Cc1cc2c(N)nccc2c(C)c1CNC(=O)c1cnn(Cc2cnccn2)c1 [Example 86, N-((1-amino-5,7-dimethylisoquinolin-6-yl)methyl)-1-(pyrazin-2-ylmethyl)-1H-pyrazole-4-carboxamide]
16 | 0.1 to 1 µM | Cc1cc2c(N)nccc2c(C)c1CNC(=O)c1cnn(Cc2ccncc2)c1 [Example 87, N-((1-amino-5,7-dimethylisoquinolin-6-yl)methyl)-1-(pyridin-4-ylmethyl)-1H-pyrazole-4-carboxamide]
17 | 0.01 to 0.1 µM | Cc1cc2c(N)nccc2c(C)c1CNC(=O)c1cnn(Cc2cccnc2)c1 [Example 88, N-((1-amino-5,7-dimethylisoquinolin-6-yl)methyl)-1-(pyridin-3-ylmethyl)-1H-pyrazole-4-carboxamide]

Row | EC50 | Structure (SMILES)
18 | < 0.001 µM | Cc1cc2c(N)nccc2c(C)c1CNC(=O)c1cnn(Cc2ccc(CC(=O)N3CC4CC4C3)nc2)c1 (stereo not shown) [Example 90, 1-((6-(2-(3-azabicyclo[3.1.0]hexan-3-yl)-2-oxoethyl)pyridin-3-yl)methyl)-N-((1-amino-5,7-dimethylisoquinolin-6-yl)methyl)-1H-pyrazole-4-carboxamide]
19 | 0.01 to 0.1 µM | COc1ccc(Cn2cc(C(=O)NCc3c(C)cc4c(N)nccc4c3C)cn2)cc1 [Example 91, N-((1-amino-5,7-dimethylisoquinolin-6-yl)methyl)-1-(4-methoxybenzyl)-1H-pyrazole-4-carboxamide]
20 | 0.01 to 0.1 µM | Cc1cc2c(N)nccc2c(C)c1CNC(=O)c1cnn(Cc2ccc(C#N)cc2)c1 [Example 92, N-((1-amino-5,7-dimethylisoquinolin-6-yl)methyl)-1-(4-cyanobenzyl)-1H-pyrazole-4-carboxamide]
21 | 0.01 to 0.1 µM | Cc1cc2c(N)nccc2c(C)c1CNC(=O)c1cnn(Cc2ccc(C(F)(F)F)cc2)c1 [Example 93, N-((1-amino-5,7-dimethylisoquinolin-6-yl)methyl)-1-(4-(trifluoromethyl)benzyl)-1H-pyrazole-4-carboxamide]
22 | 0.01 to 0.1 µM | Cc1cc2c(N)nccc2c(C)c1CNC(=O)c1cnn(Cc2cccc(C#N)c2)c1 [Example 94, N-((1-amino-5,7-dimethylisoquinolin-6-yl)methyl)-1-(3-cyanobenzyl)-1H-pyrazole-4-carboxamide]
23 | 0.01 to 0.1 µM | Cc1cc2c(N)nccc2c(C)c1CNC(=O)c1cnn(Cc2cc(C(F)(F)F)cc(C(F)(F)F)c2)c1 [Example 95, N-((1-amino-5,7-dimethylisoquinolin-6-yl)methyl)-1-(3,5-bis(trifluoromethyl)benzyl)-1H-pyrazole-4-carboxamide]
24 | 0.001 to 0.01 µM | Cc1ccc(Cn2cc(C(=O)NCc3c(C)cc4c(N)nccc4c3C)cn2)cc1Cl [Example 96, N-((1-amino-5,7-dimethylisoquinolin-6-yl)methyl)-1-(3-chloro-4-methylbenzyl)-1H-pyrazole-4-carboxamide]
25 | 0.01 to 0.1 µM | Cc1cc2c(N)nccc2c(C)c1CNC(=O)c1cnn(Cc2cccc(C(F)(F)F)c2)c1 [Example 97, N-((1-amino-5,7-dimethylisoquinolin-6-yl)methyl)-1-(3-(trifluoromethyl)benzyl)-1H-pyrazole-4-carboxamide]
26 | 0.01 to 0.1 µM | Cc1cc2c(N)nccc2c(C)c1CNC(=O)c1cnn(Cc2cccc(Cl)c2)c1 [Example 98, N-((1-amino-5,7-dimethylisoquinolin-6-yl)methyl)-1-(3-chlorobenzyl)-1H-pyrazole-4-carboxamide]
27 | < 0.001 µM | Cc1cc2c(N)nccc2c(C)c1CNC(=O)c1cnn(Cc2cn3cc(C4CC4)ccc3n2)c1 [Example 99, N-((1-amino-5,7-dimethylisoquinolin-6-yl)methyl)-1-((6-cyclopropylimidazo[1,2-a]pyridin-2-yl)methyl)-1H-pyrazole-4-carboxamide]
28 | < 0.001 µM | Cc1cc2c(N)nccc2c(C)c1CNC(=O)c1cnn(Cc2cn3ccc(C4CC4)cc3n2)c1 [Example 100, N-((1-amino-5,7-dimethylisoquinolin-6-yl)methyl)-1-((7-cyclopropylimidazo[1,2-a]pyridin-2-yl)methyl)-1H-pyrazole-4-carboxamide]
29 | < 0.001 µM | Cc1cc2nc(Cn3cc(C(=O)NCc4c(C)cc5c(N)nccc5c4C)cn3)cn2cc1C [Example 102, N-((1-amino-5,7-dimethylisoquinolin-6-yl)methyl)-1-((6,7-dimethylimidazo[1,2-a]pyridin-2-yl)methyl)-1H-pyrazole-4-carboxamide]
30 | < 0.001 µM | Cc1ccn2cc(Cn3cc(C(=O)NCc4c(C)cc5c(N)nccc5c4C)cn3)nc2c1 [Example 103, N-((1-amino-5,7-dimethylisoquinolin-6-yl)methyl)-1-((7-methylimidazo[1,2-a]pyridin-2-yl)methyl)-1H-pyrazole-4-carboxamide]
31 | < 0.001 µM | Cc1cc2c(N)nccc2c(C)c1CNC(=O)c1cnn(Cc2cn3c(C)c(C4CC4)ccc3n2)c1 [Example 104, N-((1-amino-5,7-dimethylisoquinolin-6-yl)methyl)-1-((6-cyclopropyl-5-methylimidazo[1,2-a]pyridin-2-yl)methyl)-1H-pyrazole-4-carboxamide]
32 | < 0.001 µM | Cc1cc2c(N)nccc2c(C)c1CNC(=O)c1cnn(Cc2cn3c(C)cccc3n2)c1 [Example 105, N-((1-amino-5,7-dimethylisoquinolin-6-yl)methyl)-1-((5-methylimidazo[1,2-a]pyridin-2-yl)methyl)-1H-pyrazole-4-carboxamide]
33 | < 0.001 µM | Cc1cc2c(N)nccc2c(C)c1CNC(=O)c1cnn(Cc2cn3c(C)c(Cl)ccc3n2)c1 [Example 106, N-((1-amino-5,7-dimethylisoquinolin-6-yl)methyl)-1-((6-chloro-5-methylimidazo[1,2-a]pyridin-2-yl)methyl)-1H-pyrazole-4-carboxamide]
34 | 0.001 to 0.01 µM | Cc1cc2c(N)nccc2c(C)c1CNC(=O)c1cnn(Cc2ccc3ccc(Cl)cc3n2)c1 [Example 107, N-((1-amino-5,7-dimethylisoquinolin-6-yl)methyl)-1-((7-chloroquinolin-2-yl)methyl)-1H-pyrazole-4-carboxamide]
